From article PMC7613998, “Development of selective inhibitors of phosphatidylinositol 3-kinase C2α” (Nature Chemical Biology, 2022)

Legend:
Assay in all cases: biochemical
Parameters in all cases: SelectScreen Z'-LYTE purified kinase panel, per cent inhibition, mean of two points
Details in all cases: (μM)=Km app
[1] = target: EGFR (ErbB1) L858R (Homo sapiens, UniProt P00533, L858R)
[2] = target: FGFR2 (Homo sapiens, UniProt P21802)
[3] = target: PTK2 (FAK) (Homo sapiens, UniProt Q05397)
[4] = target: IGF1R (Homo sapiens, UniProt P08069)
[5] = target: AURKB (Aurora B) (Homo sapiens, UniProt Q96GD4)
Sequence of AURKB (Aurora B) (Q96GD4 whole entry): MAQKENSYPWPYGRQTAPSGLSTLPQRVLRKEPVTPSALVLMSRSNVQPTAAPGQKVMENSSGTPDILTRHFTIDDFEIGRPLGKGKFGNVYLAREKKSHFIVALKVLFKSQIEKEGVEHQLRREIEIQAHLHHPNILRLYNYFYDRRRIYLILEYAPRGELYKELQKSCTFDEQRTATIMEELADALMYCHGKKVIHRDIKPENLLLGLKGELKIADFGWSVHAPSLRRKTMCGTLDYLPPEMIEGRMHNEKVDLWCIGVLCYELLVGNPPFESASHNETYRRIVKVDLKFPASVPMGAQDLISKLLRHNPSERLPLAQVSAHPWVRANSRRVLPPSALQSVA

[6] = target: T1, DCAMKL1 (DCLK1) (Homo sapiens, UniProt O15075)
T1 sequence (O15075 1-740): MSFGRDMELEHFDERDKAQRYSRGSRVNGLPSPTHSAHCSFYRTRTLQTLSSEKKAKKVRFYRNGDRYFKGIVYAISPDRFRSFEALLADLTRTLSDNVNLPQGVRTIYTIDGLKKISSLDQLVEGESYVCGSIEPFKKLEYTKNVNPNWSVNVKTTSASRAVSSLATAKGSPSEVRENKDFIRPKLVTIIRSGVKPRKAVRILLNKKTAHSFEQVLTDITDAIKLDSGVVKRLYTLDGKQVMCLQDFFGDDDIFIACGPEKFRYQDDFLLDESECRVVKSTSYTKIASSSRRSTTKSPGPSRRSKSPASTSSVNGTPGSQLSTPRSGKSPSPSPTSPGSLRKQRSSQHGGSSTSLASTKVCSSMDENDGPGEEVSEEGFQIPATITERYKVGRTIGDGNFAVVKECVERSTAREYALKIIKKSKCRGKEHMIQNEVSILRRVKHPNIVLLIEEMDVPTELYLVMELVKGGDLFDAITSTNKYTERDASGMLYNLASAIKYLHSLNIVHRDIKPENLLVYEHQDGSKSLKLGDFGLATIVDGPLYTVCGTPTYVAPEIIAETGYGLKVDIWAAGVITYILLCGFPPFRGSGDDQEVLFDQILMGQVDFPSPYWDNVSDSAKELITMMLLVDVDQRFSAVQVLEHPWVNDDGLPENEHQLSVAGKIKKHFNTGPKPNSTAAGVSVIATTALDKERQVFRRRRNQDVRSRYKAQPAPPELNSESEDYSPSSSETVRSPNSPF

[7] = target: T2, IRAK4 (Homo sapiens, UniProt Q9NWZ3)
T2 sequence (Q9NWZ3 1-460): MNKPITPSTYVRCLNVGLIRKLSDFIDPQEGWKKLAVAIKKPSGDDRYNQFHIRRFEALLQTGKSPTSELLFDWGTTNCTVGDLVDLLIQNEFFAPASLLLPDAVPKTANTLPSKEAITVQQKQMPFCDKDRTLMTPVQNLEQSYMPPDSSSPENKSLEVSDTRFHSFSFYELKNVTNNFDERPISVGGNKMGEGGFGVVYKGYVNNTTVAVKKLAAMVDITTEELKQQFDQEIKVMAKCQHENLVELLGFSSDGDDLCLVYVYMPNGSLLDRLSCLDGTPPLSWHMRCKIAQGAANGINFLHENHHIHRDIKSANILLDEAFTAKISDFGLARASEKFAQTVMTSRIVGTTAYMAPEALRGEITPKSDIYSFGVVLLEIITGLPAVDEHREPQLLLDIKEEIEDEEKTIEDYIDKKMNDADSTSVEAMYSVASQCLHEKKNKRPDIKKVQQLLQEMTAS

[8] = target: PIM1 (Homo sapiens, UniProt P11309)
Sequence of PIM1 (P11309 whole entry): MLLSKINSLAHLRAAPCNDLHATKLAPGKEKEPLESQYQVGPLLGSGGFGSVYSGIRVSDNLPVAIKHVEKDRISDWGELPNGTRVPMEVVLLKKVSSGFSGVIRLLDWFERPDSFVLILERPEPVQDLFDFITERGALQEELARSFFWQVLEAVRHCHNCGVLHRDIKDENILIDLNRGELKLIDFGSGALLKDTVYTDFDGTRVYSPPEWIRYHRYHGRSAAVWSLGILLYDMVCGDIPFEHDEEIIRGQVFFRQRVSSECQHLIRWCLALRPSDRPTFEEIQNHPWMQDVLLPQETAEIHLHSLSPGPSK

[9] = target: CSNK1D (CK1 delta) (Homo sapiens, UniProt P48730)
Sequence of CSNK1D (CK1 delta) (P48730 whole entry): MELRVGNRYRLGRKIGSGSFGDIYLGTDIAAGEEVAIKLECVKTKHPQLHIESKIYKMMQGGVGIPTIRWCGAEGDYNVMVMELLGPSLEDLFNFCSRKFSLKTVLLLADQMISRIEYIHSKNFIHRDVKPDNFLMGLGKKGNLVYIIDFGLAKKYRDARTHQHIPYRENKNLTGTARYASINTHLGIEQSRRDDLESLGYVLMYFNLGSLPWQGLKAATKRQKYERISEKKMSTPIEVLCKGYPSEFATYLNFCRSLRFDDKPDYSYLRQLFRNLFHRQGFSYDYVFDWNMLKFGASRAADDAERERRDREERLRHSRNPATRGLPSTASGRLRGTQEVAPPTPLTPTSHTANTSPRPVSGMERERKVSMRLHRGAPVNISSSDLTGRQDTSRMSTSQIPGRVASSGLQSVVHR

Sequence of FGFR2 (P21802 whole entry): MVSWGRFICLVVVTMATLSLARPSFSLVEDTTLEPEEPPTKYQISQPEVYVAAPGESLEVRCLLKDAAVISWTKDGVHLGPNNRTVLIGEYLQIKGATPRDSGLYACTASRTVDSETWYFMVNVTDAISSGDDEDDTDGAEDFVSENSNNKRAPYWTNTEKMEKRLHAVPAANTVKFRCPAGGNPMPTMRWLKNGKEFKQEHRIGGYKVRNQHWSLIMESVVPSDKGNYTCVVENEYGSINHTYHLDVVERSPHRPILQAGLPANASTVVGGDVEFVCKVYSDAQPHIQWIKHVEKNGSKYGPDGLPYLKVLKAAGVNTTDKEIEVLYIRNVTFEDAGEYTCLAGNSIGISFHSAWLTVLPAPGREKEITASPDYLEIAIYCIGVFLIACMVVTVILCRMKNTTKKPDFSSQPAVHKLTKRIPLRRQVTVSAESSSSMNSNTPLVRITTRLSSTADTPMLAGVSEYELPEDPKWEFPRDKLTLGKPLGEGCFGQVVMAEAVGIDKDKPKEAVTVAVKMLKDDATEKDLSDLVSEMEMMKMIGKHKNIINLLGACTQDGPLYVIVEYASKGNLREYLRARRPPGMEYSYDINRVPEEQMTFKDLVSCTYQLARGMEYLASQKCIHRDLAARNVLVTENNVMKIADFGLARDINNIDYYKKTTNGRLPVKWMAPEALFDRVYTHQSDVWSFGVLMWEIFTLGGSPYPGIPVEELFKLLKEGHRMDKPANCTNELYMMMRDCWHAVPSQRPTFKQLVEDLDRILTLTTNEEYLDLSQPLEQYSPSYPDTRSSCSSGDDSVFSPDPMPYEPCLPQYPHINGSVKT
Sequence of PTK2 (FAK) (Q05397 whole entry): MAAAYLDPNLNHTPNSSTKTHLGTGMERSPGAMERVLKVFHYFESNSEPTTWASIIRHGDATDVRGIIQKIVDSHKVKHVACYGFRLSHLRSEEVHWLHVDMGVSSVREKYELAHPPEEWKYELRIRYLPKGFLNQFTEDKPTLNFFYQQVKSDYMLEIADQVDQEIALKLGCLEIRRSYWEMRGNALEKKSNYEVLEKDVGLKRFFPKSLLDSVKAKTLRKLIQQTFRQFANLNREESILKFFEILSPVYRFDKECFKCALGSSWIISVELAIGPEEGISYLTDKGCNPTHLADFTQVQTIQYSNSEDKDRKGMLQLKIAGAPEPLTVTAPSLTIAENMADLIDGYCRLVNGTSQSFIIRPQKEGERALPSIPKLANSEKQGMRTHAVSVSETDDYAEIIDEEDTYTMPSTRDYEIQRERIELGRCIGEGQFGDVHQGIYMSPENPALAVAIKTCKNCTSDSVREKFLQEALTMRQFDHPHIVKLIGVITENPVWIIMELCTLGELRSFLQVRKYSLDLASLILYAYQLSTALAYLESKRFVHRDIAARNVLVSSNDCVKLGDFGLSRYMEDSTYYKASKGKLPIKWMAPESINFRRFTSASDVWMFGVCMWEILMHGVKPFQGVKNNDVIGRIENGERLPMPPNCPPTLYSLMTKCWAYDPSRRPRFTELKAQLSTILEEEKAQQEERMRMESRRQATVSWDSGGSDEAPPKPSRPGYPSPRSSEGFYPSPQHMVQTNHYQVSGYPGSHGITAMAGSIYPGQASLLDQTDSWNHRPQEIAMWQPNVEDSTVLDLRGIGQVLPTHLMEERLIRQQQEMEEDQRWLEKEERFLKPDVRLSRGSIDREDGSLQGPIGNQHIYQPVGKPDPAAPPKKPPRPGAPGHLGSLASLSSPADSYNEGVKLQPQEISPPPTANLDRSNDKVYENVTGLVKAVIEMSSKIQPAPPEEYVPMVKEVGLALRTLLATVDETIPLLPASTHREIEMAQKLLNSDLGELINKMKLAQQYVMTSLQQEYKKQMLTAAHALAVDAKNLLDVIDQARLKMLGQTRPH
Sequence of EGFR (ErbB1) L858R (P00533 whole entry L858R): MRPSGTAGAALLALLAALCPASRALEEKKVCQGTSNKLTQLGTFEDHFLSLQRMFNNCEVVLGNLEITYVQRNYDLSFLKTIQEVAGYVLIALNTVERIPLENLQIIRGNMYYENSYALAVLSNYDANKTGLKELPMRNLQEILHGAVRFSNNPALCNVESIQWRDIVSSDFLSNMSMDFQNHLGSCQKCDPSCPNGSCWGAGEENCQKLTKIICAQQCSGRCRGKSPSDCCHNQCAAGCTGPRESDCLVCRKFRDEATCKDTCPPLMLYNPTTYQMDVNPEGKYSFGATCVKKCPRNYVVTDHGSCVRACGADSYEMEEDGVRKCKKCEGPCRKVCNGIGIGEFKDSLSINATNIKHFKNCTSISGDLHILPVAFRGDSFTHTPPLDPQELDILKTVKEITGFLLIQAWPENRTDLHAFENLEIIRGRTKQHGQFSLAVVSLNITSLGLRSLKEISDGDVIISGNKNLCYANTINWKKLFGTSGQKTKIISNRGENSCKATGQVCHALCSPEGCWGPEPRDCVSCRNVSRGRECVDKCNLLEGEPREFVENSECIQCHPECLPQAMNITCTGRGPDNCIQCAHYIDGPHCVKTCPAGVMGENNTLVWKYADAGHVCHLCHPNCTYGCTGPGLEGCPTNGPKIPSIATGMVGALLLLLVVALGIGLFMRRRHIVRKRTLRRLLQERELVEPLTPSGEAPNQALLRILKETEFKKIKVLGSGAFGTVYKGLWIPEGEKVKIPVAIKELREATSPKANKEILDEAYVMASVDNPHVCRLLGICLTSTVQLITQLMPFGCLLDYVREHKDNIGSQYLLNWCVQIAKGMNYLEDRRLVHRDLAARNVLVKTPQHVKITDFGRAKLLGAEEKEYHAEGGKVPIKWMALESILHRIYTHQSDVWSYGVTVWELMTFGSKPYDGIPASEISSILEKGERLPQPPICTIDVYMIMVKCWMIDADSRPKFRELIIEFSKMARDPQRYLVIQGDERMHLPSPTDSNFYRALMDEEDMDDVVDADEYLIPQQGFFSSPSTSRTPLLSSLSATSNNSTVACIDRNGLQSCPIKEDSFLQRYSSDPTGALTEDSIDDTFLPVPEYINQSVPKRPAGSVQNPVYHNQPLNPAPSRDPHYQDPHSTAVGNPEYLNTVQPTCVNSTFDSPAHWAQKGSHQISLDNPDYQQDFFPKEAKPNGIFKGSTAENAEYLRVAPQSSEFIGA

inhibition at 1 µM [1] [%] | inhibition at 3 µM [1] [%] | inhibition at 10 µM [1] [%] | inhibition at 1 µM [2] [%] | inhibition at 3 µM [2] [%] | inhibition at 10 µM [2] [%] | inhibition at 1 µM [3] [%] | inhibition at 3 µM [3] [%] | inhibition at 10 µM [3] [%] | inhibition at 1 µM [4] [%] | inhibition at 3 µM [4] [%] | inhibition at 10 µM [4] [%] | inhibition at 1 µM [5] [%] | inhibition at 3 µM [5] [%] | inhibition at 10 µM [5] [%] | inhibition at 1 µM [6] [%] | inhibition at 3 µM [6] [%] | inhibition at 10 µM [6] [%] | inhibition at 1 µM [7] [%] | inhibition at 3 µM [7] [%] | Structure (SMILES) | also measured
1.72 | 5.21 | -1.6 | 6.04 | 6.91 | 3.2 | 9.45 | 8.02 | 6.38 | 5.31 | 9.19 | 11.7 | -3.65 | 2.11 | 6.27 | -7.05 | -11.7 | 13.7 | 15.2 | 4.2 | CS(=O)(=O)Nc1cccc(-c2csc(NC(=O)CSc3nc4nccnc4c(=O)n3CCc3ccccc3)n2)c1 [compound 3, PITCOIN3] | inhibition at 10 µM [7]: 9.92%; inhibition at 1 µM [8]: -8.14%; inhibition at 3 µM [8]: 9.01%; inhibition at 10 µM [8]: 5.45%; inhibition at 1 µM [9]: 5.88%; inhibition at 3 µM [9]: 7.07%; inhibition at 10 µM [9]: 7.02%
-0.259 | 2.85 | -1.14 | 1.54 | 2.27 | -1.86 | 4.94 | 3.7 | 2.3 | 7.35 | 2.59 | 5.33 | -15.7 | -5.68 | -10.8 | -1.36 | -3.92 | 1.03 | 10.7 | 2.87 | O=C(CSc1nc2nccnc2c(=O)n1CCc1ccccc1)Nc1nccs1 [compound 1, PITCOIN1] | inhibition at 10 µM [7]: 6.89%; inhibition at 1 µM [8]: 8.8%; inhibition at 3 µM [8]: 5.6%; inhibition at 10 µM [8]: -0.465%; inhibition at 1 µM [9]: 4.82%; inhibition at 3 µM [9]: 3.36%; inhibition at 10 µM [9]: 10%
